Data on eleven compounds can be found in patent US8324191B2, “Combined calcium, magnesium and vitamin D supplements” (Biolink Life Sciences, Inc, priority 2008, dated 2012).

Like-named read-outs stand apart in the source and are kept apart here.

For series [1] the following is noted: 1 gram calcium/day as the citrate, 1,471 healthy older women; cited from earlier work.
The conditions of series [2]: conventional magnesium salts; Firoz and Graber 2001; cited from earlier work.
The conditions of series [3]: doses of 1 g calcium citrate daily; cited from earlier work.
The conditions of series [4]: 250-750 mg magnesium daily as magnesium hydroxide, 2 years; cited from earlier work.
For series [5] the following is noted: cited from earlier work.
For series [6] the following is noted: cited from earlier work. The source holds these as a separate data set.
Series [7] can be described thus: Availability of magnesium and lipoate ions from aqueous suspensions of the salt. To be noted: aqueous solutions, pH about 4 to about 8. The series is classed as physicochemical. The text has this:
Thus, its bioavailability is unexpectedly high, as compared to conventional, water-insoluble magnesium salts. Further, R-(+)-alpha-lipoic acid is a widely distributed physiological antioxidant that combines free radical scavenging properties with an ability, after intracellular reduction to dihydrolipoic acid, to regenerate the levels of other nonenzymatic and enzymatic antioxidants, including glutathione (GSH), ascorbate, α-tocopherol, catalase and GSH peroxidase. The physiological form of R-(+)-α-lipoate, the R-(+)-enantiomer, is present in all eukaryotic and prokaryotic cells.

`[Ca]` [calcium]: the “effect on bone density” value in series [1] is “beneficial effect on bone density”.
For `[Cl-].[Cl-].[Mg+2]` [Magnesium chloride], the “Bioavailability (as fractional absorption of administered dose)” value in series [2] is recorded as 12%.
In the case of `O=C([O-])CC(O)(CC(=O)[O-])C(=O)[O-].O=C([O-])CC(O)(CC(=O)[O-])C(=O)[O-].[Ca+2].[Ca+2].[Ca+2]` [calcium citrate], the “risk for myocardial infarction, stroke and death” value in series [3] is recorded as “increase risk”.
Take `[Mg+2].[OH-].[OH-]` [Magnesium hydroxide]: in series [2], the “Bioavailability (as fractional absorption of administered dose)” value is on record as 4%. For the same compound, in series [4], the bone density entry is recorded as “significant increase in bone density” and the fractures result is listed as “prevented fractures”.
With `CC(O)C(=O)[O-].CC(O)C(=O)[O-].[Mg+2]` (stereo not drawn) [Magnesium lactate], the “Bioavailability (as fractional absorption of administered dose)” value in series [2] was 12%.
For the compound `O=C(O)CCCCC1CCSS1` (stereo not drawn) [RS-Alpha-lipoic acid, RS-alpha-lipoic acid], in series [5] (closed and sealed amber container at room temperature), the storage life result is listed as “a year or more”.
Take vitamin D: in series [6] (400 IU per day), the fracture benefit result was “failed to demonstrate any fracture benefit”. Besides, in series [6] (700 to 800 IU per day), the “reduction of risk of any non-vertebral fracture” value is given as 23% and the “reduction of risk of hip fracture” value was 26%.
For the compound Magnesium R-(+)-alpha-lipoate, the “availability of magnesium and R-(+)-alpha-lipoate ions from suspensions” value in series [7] is given as “available”.
In the case of Magnesium citrate, the “Bioavailability (as fractional absorption of administered dose)” value in series [2] is 12%.
Regarding `[O]=[Mg]` [Magnesium oxide], in series [2], the “Bioavailability (as fractional absorption of administered dose)” value is listed as 4%.
`O=C(O)CCCCC1CCSS1` (stereo not drawn) [R-(+)-alpha-lipoic acid]: in series [5] (closed and sealed amber container at refrigerated temperatures), the storage life entry is recorded as “within a few months”.
